Data as given in ChEMBL document CHEMBL1158508, “Molecular modeling study of 4-phenylpiperazine and 4-phenyl-1,2,3,6-tetrahydropyridine derivatives: a new step towards the design of high-affinity 5-HT1A ligands” (Bioorg Med Chem Lett, 2010).

What was measured:
[1] = target: T1, 5-hydroxytryptamine receptor 1A (Homo sapiens, UniProt P08908); assay: Inhibition of 5HT1A receptor
T1 sequence (P08908 whole entry): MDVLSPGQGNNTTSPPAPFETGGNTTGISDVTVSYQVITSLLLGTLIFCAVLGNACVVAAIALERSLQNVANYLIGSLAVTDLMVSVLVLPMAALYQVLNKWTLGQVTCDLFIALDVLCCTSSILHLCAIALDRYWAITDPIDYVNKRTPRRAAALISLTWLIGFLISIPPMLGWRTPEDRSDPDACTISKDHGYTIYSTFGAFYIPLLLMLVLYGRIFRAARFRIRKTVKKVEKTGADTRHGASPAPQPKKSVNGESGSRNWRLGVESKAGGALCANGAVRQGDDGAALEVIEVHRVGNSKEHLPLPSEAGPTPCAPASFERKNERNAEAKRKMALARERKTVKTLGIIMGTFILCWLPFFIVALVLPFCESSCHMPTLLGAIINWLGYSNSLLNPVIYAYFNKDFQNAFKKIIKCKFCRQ

[2] = target: 5-hydroxytryptamine receptor 7 (Homo sapiens, UniProt P34969); assay: Binding affinity to 5HT7 receptor
Chain of 5-hydroxytryptamine receptor 7 (P34969 whole entry): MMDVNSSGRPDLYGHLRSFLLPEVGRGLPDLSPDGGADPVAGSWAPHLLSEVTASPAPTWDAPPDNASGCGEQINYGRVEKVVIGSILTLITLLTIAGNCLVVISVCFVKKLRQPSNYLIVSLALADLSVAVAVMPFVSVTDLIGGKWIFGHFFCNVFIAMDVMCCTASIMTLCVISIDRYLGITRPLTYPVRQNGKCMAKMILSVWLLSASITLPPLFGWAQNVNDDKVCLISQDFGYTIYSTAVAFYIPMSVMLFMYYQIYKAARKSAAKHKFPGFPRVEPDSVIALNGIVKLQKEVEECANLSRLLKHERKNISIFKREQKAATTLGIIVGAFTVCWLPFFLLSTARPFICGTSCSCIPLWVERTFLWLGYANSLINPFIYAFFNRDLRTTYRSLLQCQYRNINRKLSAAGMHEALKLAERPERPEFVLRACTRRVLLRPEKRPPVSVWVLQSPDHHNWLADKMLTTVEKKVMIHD

Structure (SMILES) | IC50 [1] [nM] | Ki [2] [nM]
COc1ccc2[nH]cc(CCCCN3CC=C(c4ccccc4)CC3)c2c1 | 20 | 
O=C1Nc2cccc3c2C1(CCCCN1CCN(c2ccccc2)CC1)CCC3 (racemic) |  | 2.14
O=C1Nc2cccc3c2C1(CCCCN1CC=C(c2ccccc2)CC1)CCC3 (racemic) |  | 3.31
Oc1ccc2[nH]cc(CCCCN3CC=C(c4ccccc4)CC3)c2c1 [ROXINDOLE] | 0.8 | 
